Where “and” joins values, the source holds several entries; their conditions need not be identical. Equal values may be shown once. Where a name gives a salt, the structure may show the parent alone.
Columns and labels:
SERT [1] = target: T1, SERT (Homo sapiens, UniProt P31645); settings: cited from earlier work
[2] = system: 5-HT in rat and mouse PFC; settings: cited from earlier work
neuronal receptors = settings: binding affinity study; cited from earlier work
DA receptor D1 = DA receptor D1 (Homo sapiens, UniProt P21728); experiment: Cerep Bioprint radioligand binding assay: D1; settings: read-out: percent inhibition of the binding of a radiolabeled ligand
[3] = target: muscarinic cholinergic receptor M1 (Homo sapiens, UniProt P11229); experiment: Cerep Bioprint radioligand binding assay: M1; settings: read-out: percent inhibition of the binding of a radiolabeled ligand
His receptor H2 = His receptor H2 (Homo sapiens, UniProt P25021); experiment: Cerep Bioprint radioligand binding assay: H2; settings: read-out: percent inhibition of the binding of a radiolabeled ligand
[4] = target: cholinergic muscarinic receptor M1 (Homo sapiens, UniProt P11229)
[5] = target: muscarinic cholinergic receptor M3 (Homo sapiens, UniProt P20309); experiment: Cerep Bioprint radioligand binding assay: M3; settings: read-out: percent inhibition of the binding of a radiolabeled ligand
5-HT7 [6] = target: T2, 5-HT7 (Homo sapiens, UniProt P34969); experiment: cell-based; settings: read-out: antagonistic activity at 5-HT7, inhibition
[7] = target: adrenergic alpha1A (ADRα1A) receptor (Homo sapiens, UniProt P35348); experiment: Cerep Bioprint radioligand binding assay: ADRα1A; settings: read-out: percent inhibition of the binding of a radiolabeled ligand
5-HT1A = 5-HT1A (Homo sapiens, UniProt P08908)
[8] = system: extracellular neurotransmitter levels in the PFC, Acb, and Amg; settings: viloxazine 50 mg/kg IP, compared to baseline or vehicle
5-HT1B [9] = target: 5-HT1B (Homo sapiens, UniProt P28222)
5-HT2C [10] = target: T3, 5-HT2C (Homo sapiens, UniProt P28335); experiment: cell-based; settings: CHO, read-out: Emax, agonistic activity towards 5-HT2C
[11] = target: muscarinic cholinergic receptor M2 (Homo sapiens, UniProt P08172); experiment: Cerep Bioprint radioligand binding assay: M2; settings: read-out: percent inhibition of the binding of a radiolabeled ligand
5-HT2B [12] = target: T4, 5-HT2B (Homo sapiens, UniProt P41595); experiment: Cerep Bioprint radioligand binding assay: 5-HT2B
5-HT2B [13] = target: T4, 5-HT2B; experiment: cell-based
DAT = DAT (Homo sapiens, UniProt Q01959); experiment: Cerep Bioprint radioligand binding assay: DAT; settings: read-out: percent inhibition (activity towards DAT)
His receptor H1 = His receptor H1 (Homo sapiens, UniProt P35367); experiment: Cerep Bioprint radioligand binding assay: H1; settings: read-out: percent inhibition of the binding of a radiolabeled ligand
[14] = target: monoamine oxidase A (MAO-A) (Rattus norvegicus, UniProt P21396); experiment: Cerep Bioprint panel assay: MAO-A; settings: read-out: percent inhibition (activity towards MAO-A)
ADRα1A = ADRα1A (Homo sapiens, UniProt P35348)
[15] = target: choline transporter (CHT-1) (Homo sapiens, UniProt Q9GZV3); experiment: Cerep Bioprint radioligand binding assay: CHT-1; settings: viloxazine 10 µM
ADRα2C = ADRα2C (Homo sapiens, UniProt P18825)
5-HT1B [16] = settings: viloxazine 10 µM
[17] = target: muscarinic cholinergic receptor M4 (Homo sapiens, UniProt P08173); experiment: Cerep Bioprint radioligand binding assay: M4; settings: read-out: percent inhibition of the binding of a radiolabeled ligand
5-HT6 = 5-HT6 (Homo sapiens, UniProt P50406)
DA receptor D2S = DA receptor D2S (Homo sapiens, UniProt P14416); experiment: Cerep Bioprint radioligand binding assay: D2S; settings: read-out: percent inhibition of the binding of a radiolabeled ligand
[18] = target: cholinergic muscarinic receptor M4 (Homo sapiens, UniProt P08173)
SERT [19] = target: T1, SERT; experiment: Cerep Bioprint radioligand binding assay: SERT; settings: viloxazine 10 µM
[20] = target: cholinergic muscarinic receptor M3 (Homo sapiens, UniProt P20309)
dopaminergic receptor D1 = dopaminergic receptor D1 (Homo sapiens, UniProt P21728)
NET [21] = target: NET (Rattus norvegicus, UniProt Q63380); experiment: biochemical; settings: IC50, inhibition of [3H]-NE uptake (NET), rat hypothalamic synaptosomes
[22] = target: adrenergic alpha1B (ADRα1B) receptor (Homo sapiens, UniProt P35368); experiment: Cerep Bioprint radioligand binding assay: ADRα1B; settings: read-out: percent inhibition of the binding of a radiolabeled ligand
ADRβ1 = ADRβ1 (Homo sapiens, UniProt P08588)
5-HT2A [23] = target: T5, 5-HT2A (Homo sapiens, UniProt P28223); settings: concentrations up to 300 µM
ADRα1B = ADRα1B (Homo sapiens, UniProt P35368); experiment: cell-based
ADRα2B = ADRα2B (Homo sapiens, UniProt P18089)
histaminic receptor H1 = histaminic receptor H1 (Homo sapiens, UniProt P35367)
[24] = target: dopaminergic receptor D2S (Homo sapiens, UniProt P14416)
5-HT1D = 5-HT1D (Rattus norvegicus, UniProt P28565)
GABA transporter (GAT) = experiment: Cerep Bioprint radioligand binding assay: GAT; settings: viloxazine 10 µM
5-HT2B [25] = settings: at all concentrations, clinical doses of 100, 200, 400, and 600 mg/day
5-HT2C [26] = settings: at all concentrations except at 100 mg/day dose
ADRβ2 = ADRβ2 (Homo sapiens, UniProt P07550); experiment: cell-based
dopaminergic receptor D3 = dopaminergic receptor D3 (Homo sapiens, UniProt P35462)
ADRα2A = ADRα2A (Homo sapiens, UniProt P08913)
5-HT2A [27] = target: T5, 5-HT2A; experiment: cell-based
5-HT7 [28] = target: T2, 5-HT7; experiment: Cerep Bioprint radioligand binding assay: 5-HT7; settings: read-out: percent inhibition of the binding of a radiolabeled ligand
DA receptor D3 = DA receptor D3 (Homo sapiens, UniProt P35462); experiment: Cerep Bioprint radioligand binding assay: D3; settings: read-out: percent inhibition of the binding of a radiolabeled ligand
5-HT7 [29] = target: T2, 5-HT7; settings: concentrations up to 100 µM
5-HT2C [30] = target: T3, 5-HT2C; experiment: biochemical; settings: read-out: percent inhibition of the binding of a radiolabeled ligand
NET [31] = target: NET (Homo sapiens, UniProt P23975); experiment: Cerep Bioprint radioligand binding assay: NET; settings: read-out: percent inhibition of the binding of a radiolabeled ligand
DA in the striatum = settings: freely moving spontaneously hypertensive rats; cited from earlier work

T4 sequence (P41595 whole entry): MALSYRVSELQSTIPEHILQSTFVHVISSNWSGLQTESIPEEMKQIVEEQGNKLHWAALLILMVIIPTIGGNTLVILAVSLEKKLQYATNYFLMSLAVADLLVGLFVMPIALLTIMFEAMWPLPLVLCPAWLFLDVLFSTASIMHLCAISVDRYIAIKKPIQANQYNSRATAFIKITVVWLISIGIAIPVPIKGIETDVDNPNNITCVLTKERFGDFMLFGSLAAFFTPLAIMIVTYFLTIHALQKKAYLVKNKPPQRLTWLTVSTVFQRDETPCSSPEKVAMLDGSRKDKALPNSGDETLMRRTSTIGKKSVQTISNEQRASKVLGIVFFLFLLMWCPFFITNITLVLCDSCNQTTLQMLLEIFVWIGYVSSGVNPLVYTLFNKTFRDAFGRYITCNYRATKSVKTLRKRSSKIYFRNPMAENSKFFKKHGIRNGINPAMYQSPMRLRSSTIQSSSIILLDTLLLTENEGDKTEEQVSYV
Chain of NET (Rattus norvegicus, UniProt Q63380) (Q63380 1-617): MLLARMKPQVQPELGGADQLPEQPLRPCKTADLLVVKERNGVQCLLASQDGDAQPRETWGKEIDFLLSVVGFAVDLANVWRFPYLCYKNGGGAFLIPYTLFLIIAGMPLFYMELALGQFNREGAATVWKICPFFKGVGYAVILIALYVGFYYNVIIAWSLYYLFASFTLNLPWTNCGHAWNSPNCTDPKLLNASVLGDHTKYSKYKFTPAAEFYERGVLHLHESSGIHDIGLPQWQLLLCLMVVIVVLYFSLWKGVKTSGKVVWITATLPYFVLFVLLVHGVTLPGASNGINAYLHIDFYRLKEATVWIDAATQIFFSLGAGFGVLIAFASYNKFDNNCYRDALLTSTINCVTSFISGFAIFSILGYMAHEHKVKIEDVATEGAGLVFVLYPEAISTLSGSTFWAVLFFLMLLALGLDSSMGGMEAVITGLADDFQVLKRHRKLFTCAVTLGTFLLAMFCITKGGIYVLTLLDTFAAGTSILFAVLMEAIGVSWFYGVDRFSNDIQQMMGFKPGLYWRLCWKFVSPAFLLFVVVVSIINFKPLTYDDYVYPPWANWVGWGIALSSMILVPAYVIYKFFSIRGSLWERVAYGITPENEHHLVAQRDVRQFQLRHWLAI
T3 sequence (P28335 33-458): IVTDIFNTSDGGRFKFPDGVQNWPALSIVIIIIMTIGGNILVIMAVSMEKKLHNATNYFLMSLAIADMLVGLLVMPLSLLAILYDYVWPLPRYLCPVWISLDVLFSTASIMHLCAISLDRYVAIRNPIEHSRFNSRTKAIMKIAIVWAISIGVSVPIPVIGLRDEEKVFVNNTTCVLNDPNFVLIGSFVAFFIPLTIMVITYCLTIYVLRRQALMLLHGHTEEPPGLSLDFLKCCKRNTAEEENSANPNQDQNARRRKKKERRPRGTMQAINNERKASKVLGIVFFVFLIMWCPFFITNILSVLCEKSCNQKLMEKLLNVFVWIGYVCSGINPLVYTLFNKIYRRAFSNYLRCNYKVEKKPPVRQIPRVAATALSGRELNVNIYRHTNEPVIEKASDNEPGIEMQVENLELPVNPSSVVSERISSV
Chain of cholinergic muscarinic receptor M4 (P08173 whole entry): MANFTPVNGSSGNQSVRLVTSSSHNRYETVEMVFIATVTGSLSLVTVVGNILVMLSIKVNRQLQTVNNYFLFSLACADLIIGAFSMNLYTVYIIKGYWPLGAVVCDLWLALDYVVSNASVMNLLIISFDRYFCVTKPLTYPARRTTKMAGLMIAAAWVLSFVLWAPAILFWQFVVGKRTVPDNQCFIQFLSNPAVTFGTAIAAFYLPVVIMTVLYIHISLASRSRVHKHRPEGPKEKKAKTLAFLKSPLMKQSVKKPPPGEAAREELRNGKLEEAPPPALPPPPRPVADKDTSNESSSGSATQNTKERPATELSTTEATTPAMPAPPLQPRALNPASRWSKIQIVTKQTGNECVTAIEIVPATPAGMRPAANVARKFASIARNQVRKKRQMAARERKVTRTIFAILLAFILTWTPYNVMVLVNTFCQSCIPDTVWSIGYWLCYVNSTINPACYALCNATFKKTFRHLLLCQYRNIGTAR
T1 sequence (P31645 whole entry, species assumed): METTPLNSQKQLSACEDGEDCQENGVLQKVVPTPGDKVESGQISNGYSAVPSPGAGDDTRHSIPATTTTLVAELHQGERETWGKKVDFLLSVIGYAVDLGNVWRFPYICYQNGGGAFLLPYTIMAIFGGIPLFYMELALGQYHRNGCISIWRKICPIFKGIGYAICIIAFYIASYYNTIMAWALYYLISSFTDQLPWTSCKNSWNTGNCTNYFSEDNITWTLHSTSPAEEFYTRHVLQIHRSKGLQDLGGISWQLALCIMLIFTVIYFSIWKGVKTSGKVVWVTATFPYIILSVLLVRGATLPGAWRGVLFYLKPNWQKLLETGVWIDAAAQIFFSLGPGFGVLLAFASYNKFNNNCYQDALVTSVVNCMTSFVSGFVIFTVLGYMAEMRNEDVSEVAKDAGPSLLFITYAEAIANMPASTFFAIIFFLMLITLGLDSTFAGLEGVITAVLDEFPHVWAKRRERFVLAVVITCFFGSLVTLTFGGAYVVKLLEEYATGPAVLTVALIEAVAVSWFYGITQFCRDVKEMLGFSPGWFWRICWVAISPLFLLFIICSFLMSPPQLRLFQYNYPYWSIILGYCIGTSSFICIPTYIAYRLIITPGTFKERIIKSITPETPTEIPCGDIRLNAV
Chain of dopaminergic receptor D3 (P35462 whole entry): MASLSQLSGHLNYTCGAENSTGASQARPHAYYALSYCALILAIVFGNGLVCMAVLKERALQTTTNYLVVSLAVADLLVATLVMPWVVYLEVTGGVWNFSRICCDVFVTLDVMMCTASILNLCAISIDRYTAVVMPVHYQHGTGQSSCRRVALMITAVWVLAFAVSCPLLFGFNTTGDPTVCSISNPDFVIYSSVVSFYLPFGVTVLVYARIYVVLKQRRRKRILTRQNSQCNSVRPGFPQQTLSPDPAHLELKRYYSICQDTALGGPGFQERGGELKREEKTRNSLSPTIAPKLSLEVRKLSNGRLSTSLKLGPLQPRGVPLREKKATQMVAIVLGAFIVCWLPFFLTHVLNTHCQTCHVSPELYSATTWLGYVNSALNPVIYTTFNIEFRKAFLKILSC
Chain of dopaminergic receptor D2S (P14416 1-414 isoform P14416-2): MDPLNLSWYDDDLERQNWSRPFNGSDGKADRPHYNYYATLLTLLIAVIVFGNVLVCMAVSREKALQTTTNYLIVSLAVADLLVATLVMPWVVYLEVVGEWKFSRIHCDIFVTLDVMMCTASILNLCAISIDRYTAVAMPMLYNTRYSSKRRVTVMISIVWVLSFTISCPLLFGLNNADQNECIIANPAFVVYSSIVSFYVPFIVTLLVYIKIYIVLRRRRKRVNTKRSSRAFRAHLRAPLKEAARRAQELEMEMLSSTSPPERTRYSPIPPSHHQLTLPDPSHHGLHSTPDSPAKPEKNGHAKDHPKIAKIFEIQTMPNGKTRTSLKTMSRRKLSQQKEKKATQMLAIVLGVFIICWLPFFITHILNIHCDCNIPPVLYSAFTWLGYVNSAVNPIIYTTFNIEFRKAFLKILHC
Chain of dopaminergic receptor D1 (P21728 whole entry): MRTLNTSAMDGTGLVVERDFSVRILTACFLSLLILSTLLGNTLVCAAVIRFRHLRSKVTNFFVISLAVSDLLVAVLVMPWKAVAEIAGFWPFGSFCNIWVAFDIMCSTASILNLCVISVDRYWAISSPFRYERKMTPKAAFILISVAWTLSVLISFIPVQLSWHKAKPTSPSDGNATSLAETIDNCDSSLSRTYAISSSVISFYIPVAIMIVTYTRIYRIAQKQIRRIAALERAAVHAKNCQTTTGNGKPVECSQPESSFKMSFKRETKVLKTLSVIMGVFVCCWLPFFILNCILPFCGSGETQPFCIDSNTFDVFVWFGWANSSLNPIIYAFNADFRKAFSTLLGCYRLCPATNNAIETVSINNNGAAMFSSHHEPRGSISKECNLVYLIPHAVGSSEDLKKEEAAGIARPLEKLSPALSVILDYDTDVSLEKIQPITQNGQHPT
Chain of cholinergic muscarinic receptor M1 (P11229 whole entry): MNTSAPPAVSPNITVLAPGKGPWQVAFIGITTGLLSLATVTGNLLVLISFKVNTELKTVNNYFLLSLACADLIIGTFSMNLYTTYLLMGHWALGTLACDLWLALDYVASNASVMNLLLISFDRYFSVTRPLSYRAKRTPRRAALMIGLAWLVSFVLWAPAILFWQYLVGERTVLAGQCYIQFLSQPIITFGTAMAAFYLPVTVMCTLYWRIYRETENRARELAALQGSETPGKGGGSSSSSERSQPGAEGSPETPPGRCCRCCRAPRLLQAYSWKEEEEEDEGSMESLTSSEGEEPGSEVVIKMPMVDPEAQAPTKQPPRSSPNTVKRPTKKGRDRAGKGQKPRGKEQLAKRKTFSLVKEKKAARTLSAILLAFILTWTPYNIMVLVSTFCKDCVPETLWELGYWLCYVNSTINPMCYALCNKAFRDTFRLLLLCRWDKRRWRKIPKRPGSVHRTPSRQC
Chain of histaminic receptor H1 (P35367 whole entry): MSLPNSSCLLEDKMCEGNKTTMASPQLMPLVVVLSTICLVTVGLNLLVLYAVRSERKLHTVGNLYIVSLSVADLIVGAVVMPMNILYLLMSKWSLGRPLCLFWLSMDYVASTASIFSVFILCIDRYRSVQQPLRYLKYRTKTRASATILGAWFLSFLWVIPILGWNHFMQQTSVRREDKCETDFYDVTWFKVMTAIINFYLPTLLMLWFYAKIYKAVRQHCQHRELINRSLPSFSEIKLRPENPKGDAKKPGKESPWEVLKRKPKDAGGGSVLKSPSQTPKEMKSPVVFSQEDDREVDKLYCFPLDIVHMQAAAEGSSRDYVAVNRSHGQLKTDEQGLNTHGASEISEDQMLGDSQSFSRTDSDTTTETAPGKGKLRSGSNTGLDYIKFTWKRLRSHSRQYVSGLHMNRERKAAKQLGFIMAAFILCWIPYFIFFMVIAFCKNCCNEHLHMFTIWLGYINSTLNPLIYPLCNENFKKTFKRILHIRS
Chain of muscarinic cholinergic receptor M4 (P08173 whole entry): as the sequence (P08173 whole entry) above
Chain of DA receptor D3 (P35462 whole entry): as the sequence (P35462 whole entry) above
Chain of DA receptor D2S (P14416 1-414 isoform P14416-2): as the sequence (P14416 1-414 isoform P14416-2) above

For `CNCC[C@@H](Oc1ccccc1C)c1ccccc1` [Atomoxetine, atomoxetine], the SERT occupancy (SERT [1]) is listed as > 85%, the “effect on 5-HT in rat and mouse PFC by microdialysis” value [2] is listed as “not found to functionally increase 5-HT” and the “affinity for neuronal receptors” value (neuronal receptors) is listed as “does not possess appreciable affinity”.

With `CCOc1ccccc1OCC1CNCCO1` (centres unmarked) [Viloxazine, Viloxazine hydrochloride] the inhibition at 10 µM (DA receptor D1) was < 25%, the inhibition at 10 µM [3] was < 25% and the inhibition at 10 µM (His receptor H2) was < 25%. For the same molecule, the “antagonistic activity towards M1” value [4] was “either very weak (IC50 > 150 µM) or no antagonistic activity”, the “agonistic activity towards M1” value ([4]; concentrations up to 300 µM) was “no significant agonistic activity” and the inhibition at 10 µM [5] was < 25%. The inhibition at 100 µM (5-HT7 [6]) was 52%, the inhibition at 10 µM [7] was > 50% and the “agonistic or antagonistic activity towards 5-HT1A” value (5-HT1A) was “did not show any significant agonistic or antagonistic activity”. For the same molecule, the “change in extracellular level of ACh” value [8] was “No significant changes”, the “change in extracellular level of GABA” value [8] was “No significant changes” and the “change in extracellular level of Glu” value [8] was “No significant changes”. For the same molecule, the “change in extracellular level of His” value [8] was “No significant changes”, the “agonistic or antagonistic activity towards 5-HT1B” value (5-HT1B [9]) was “did not show any significant agonistic or antagonistic activity” and the Emax (5-HT2C [10]) was 78.6%. The inhibition at 10 µM [11] was < 25%, the Ki (5-HT2B [12]; Ki for 5-HT2B, constant of binding used for receptor occupancy) was 6.4 µM and the inhibition at 10 µM (5-HT2B [12]; read-out: percent inhibition of the binding of a radiolabeled ligand) was > 50%. The IC50 (5-HT2B [13]) was 27 µM, the inhibition at 10 µM (DAT) was ~10% and the inhibition at 10 µM (His receptor H1) was < 25%. The inhibition at 10 µM [14] was ~10%, the “agonistic or antagonistic activity towards ADRα1A” value (ADRα1A) was “either very weak (IC50 > 150 µM) or no significant agonistic or antagonistic activity” and the “binding to the choline transporter (CHT-1)” value [15] was “negligible binding”. For the same molecule, the “agonistic or antagonistic activity towards ADRα2C” value (ADRα2C) was “either very weak (IC50 > 150 µM) or no significant agonistic or antagonistic activity”, the “percent inhibition of the binding of a radiolabeled ligand” value (5-HT1B [16]) was > 50% and the inhibition at 10 µM [17] was < 25%. The “agonistic or antagonistic activity towards 5-HT6” value (5-HT6) was “did not show any significant agonistic or antagonistic activity”, the inhibition at 10 µM (DA receptor D2S) was < 25% and the “antagonistic activity towards M4” value [18] was “either very weak (IC50 > 150 µM) or no antagonistic activity”. For the same molecule, the “agonistic activity towards M4” value ([18]; concentrations up to 300 µM) was “no significant agonistic activity”, the “binding to SERT” value (SERT [19]) was “negligible binding” and the “antagonistic activity towards M3” value [20] was “either very weak (IC50 > 150 µM) or no antagonistic activity”. The “agonistic activity towards M3” value ([20]; concentrations up to 300 µM) was “no significant agonistic activity”, the “antagonistic activity towards D1” value (dopaminergic receptor D1) was “either very weak (IC50 > 150 µM) or no antagonistic activity” and the “agonistic activity towards D1” value (dopaminergic receptor D1; concentrations up to 300 µM) was “no significant agonistic activity”. For the same molecule, the IC50 (NET [21]) was 0.26 µM and ~0.3 µM, the inhibition at 10 µM [22] was > 50% and the “agonistic or antagonistic activity towards ADRβ1” value (ADRβ1) was “either very weak (IC50 > 150 µM) or no significant agonistic or antagonistic activity”. The “agonistic effect at 5-HT2A” value (5-HT2A [23]) was “no agonistic effect”, the IC50 (ADRα1B) was 93 µM and the “agonistic or antagonistic activity towards ADRα2B” value (ADRα2B) was “either very weak (IC50 > 150 µM) or no significant agonistic or antagonistic activity”. The “antagonistic activity towards H1” value (histaminic receptor H1) was “either very weak (IC50 > 150 µM) or no antagonistic activity”, the “agonistic activity towards H1” value (histaminic receptor H1; concentrations up to 300 µM) was “no significant agonistic activity” and the “antagonistic activity towards D2S” value [24] was “either very weak (IC50 > 150 µM) or no antagonistic activity”. The “agonistic activity towards D2S” value ([24]; concentrations up to 300 µM) was “no significant agonistic activity”, the “agonistic or antagonistic activity towards 5-HT1D” value (5-HT1D) was “did not show any significant agonistic or antagonistic activity” and the “binding to the GABA transporter (GAT)” value (GABA transporter (GAT)) was “negligible binding”. The “calculated 5-HT2B occupancy at clinical doses” value (5-HT2B [25]) was “higher than 80%”, the “calculated 5-HT2C occupancy at clinical doses” value (5-HT2C [26]) was “higher than 80%” and the IC50 (ADRβ2) was 68 µM. The “antagonistic activity towards D3” value (dopaminergic receptor D3) was “either very weak (IC50 > 150 µM) or no antagonistic activity”, the “agonistic activity towards D3” value (dopaminergic receptor D3; concentrations up to 300 µM) was “no significant agonistic activity” and the “agonistic or antagonistic activity towards ADRα2A” value (ADRα2A) was “either very weak (IC50 > 150 µM) or no significant agonistic or antagonistic activity”. For the same molecule, the IC50 (5-HT2A [27]) was > 300 µM, the inhibition at 10 µM (5-HT7 [28]) was > 50% and the inhibition at 10 µM (DA receptor D3) was < 25%. For the same molecule, the “agonistic activity at 5-HT7” value (5-HT7 [29]) was “no agonistic activity”, the inhibition at 10 µM (5-HT2C [30]) was > 50% and the inhibition at 10 µM (NET [31]) was > 50%.

For `C[C@H](N)Cc1ccccc1` [d-amphetamine], the “increase of DA from the baseline level in the striatum” value (DA in the striatum) is listed as 700%.

For `C[C@@H](N)Cc1ccccc1` [l-amphetamine], the “increase of DA from the baseline level in the striatum” value (DA in the striatum) is given as 1,200%.
